In article PMC2248166, “Quantitative peptide binding motifs for 19 human and mouse MHC class I molecules derived using positional scanning combinatorial peptide libraries” (Immunome Research, 2008) one finds IC50 data, which are given here for 18 molecules.

Where a SMILES comes first, the peptide text is derived from it.

Some targets named below: HLA B*1501 (Homo sapiens, UniProt P01889, A329T/A93T/A95T/C349S/D201E/D98Y/E187L/E204Q/E69M/E70A/K202T/N87E/Q94N/R155S/R180W/S121R/S35A/S48A/V306I/V36M/Y140S/Y91S); HLA B*0801 (Homo sapiens, UniProt P01889, A93T/A95T/D138N/E176V/E187T/K202T/Q94N/R180D/S35A/V36M/Y33D/Y91F); HLA B*1503 (Homo sapiens, UniProt P01889, A329T/A93T/A95T/C349S/D201E/D98Y/E187L/E204Q/K202T/N87E/Q94N/R155S/R180L/S121R/S35A/V306I/V36M/Y140S/Y91S); HLA A*3001 (Homo sapiens, UniProt P04439, D140H/D185E/E176W/F33S/G80R/H175R/K168Q/R138E/R41S).

What all share (test): biochemical
Assay type in all cases: binding

HLA A*3001, sequence (P04439 25-365 limits assumed, stated change not applied): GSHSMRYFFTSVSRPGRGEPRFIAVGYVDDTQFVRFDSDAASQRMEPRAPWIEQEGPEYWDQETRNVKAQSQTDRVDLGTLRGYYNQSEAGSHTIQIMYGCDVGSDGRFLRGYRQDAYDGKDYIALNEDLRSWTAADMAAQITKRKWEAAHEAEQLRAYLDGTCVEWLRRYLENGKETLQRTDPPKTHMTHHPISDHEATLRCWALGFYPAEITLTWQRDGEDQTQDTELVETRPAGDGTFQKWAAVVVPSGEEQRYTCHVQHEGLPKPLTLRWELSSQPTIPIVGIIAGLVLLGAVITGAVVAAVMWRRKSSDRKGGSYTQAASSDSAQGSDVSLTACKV

For orientation: IC50 means the point on the concentration scale where inhibition reaches its midpoint. For the molecule `CC(C)[C@H](NC(=O)[C@H](C)NC(=O)[C@H](CO)NC(=O)[C@H](Cc1ccc(O)cc1)NC(=O)[C@H](CCCNC(=N)N)NC(=O)CNC(=O)[C@H](Cc1ccc(O)cc1)NC(=O)[C@@H](NC(=O)[C@@H](N)CCCCN)C(C)C)C(=O)O` [3102.0117] (H-KVYGRYSAV-OH), the 50% inhibitory concentration (IC50) turned out to be 95 nM on HLA B*1501 and 4.2 nM against HLA B*0801.

For the molecule `CC(C)C[C@H](NC(=O)[C@H](C)NC(=O)[C@H](CCCNC(=N)N)NC(=O)[C@H](Cc1c[nH]cn1)NC(=O)[C@H](CC(C)C)NC(=O)[C@H](Cc1c[nH]c2ccccc12)NC(=O)[C@H](CCCNC(=N)N)NC(=O)[C@@H](NC(=O)[C@@H](N)Cc1ccccc1)C(C)C)C(=O)O` [3102.0526] (H-FVRWLHRAL-OH), the IC50 turned out to be 16 nM at HLA B*1501 and 1 nM against HLA B*0801.

As for `CC[C@H](C)[C@H](NC(=O)[C@H](CO)NC(=O)[C@H](CCCNC(=N)N)NC(=O)[C@H](CO)NC(=O)[C@H](CCSC)NC(=O)[C@H](CO)NC(=O)[C@H](CCCNC(=N)N)NC(=O)[C@@H](NC(=O)[C@@H](N)CO)[C@@H](C)CC)C(=O)O` [3102.0527] (H-SIRSMSRSI-OH), the figures for the IC50 against HLA B*1501 and against HLA B*0801 were 363 nM and 77 nM, respectively.

For the molecule `CC[C@H](C)[C@H](NC(=O)[C@H](CCCCN)NC(=O)[C@H](CC(N)=O)NC(=O)[C@H](CCCCN)NC(=O)[C@@H](NC(=O)[C@@H](N)Cc1ccccc1)[C@@H](C)CC)C(=O)N[C@@H](Cc1c[nH]cn1)C(=O)N[C@@H](CC(C)C)C(=O)N[C@@H](CC(C)C)C(=O)O` [3102.0551] (H-FIKNKIHLL-OH), the IC50 against HLA B*1501 was 98 nM; against HLA B*0801, 0.82 nM.

`CC(C)[C@H](NC(=O)[C@H](Cc1ccccc1)NC(=O)[C@H](CC(=O)O)NC(=O)[C@H](CC(N)=O)NC(=O)[C@H](CCCCN)NC(=O)[C@@H]1CCCN1C(=O)[C@@H](N)Cc1ccccc1)C(=O)N[C@@H](CO)C(=O)N[C@@H](Cc1ccccc1)C(=O)O` [3102.0637] (H-FPKNDFVSF-OH): the results for the IC50 at HLA B*1501, against HLA B*0801 and against HLA B*1503 were 10 nM, 16 nM and 4.2 nM, respectively.

On to `CC[C@H](C)[C@H](NC(=O)[C@@H](N)CC(C)C)C(=O)N[C@@H](CCCNC(=N)N)C(=O)N[C@@H](CC(N)=O)C(=O)N[C@@H](CCCCN)C(=O)N[C@@H](CCCNC(=N)N)C(=O)N[C@@H](CC(C)C)C(=O)N[C@@H](CO)C(=O)N[C@@H](CC(C)C)C(=O)O` [3102.0638] (H-LIRNKRLSL-OH), for which the IC50 at HLA B*1501 was 455 nM; on HLA B*0801, 0.78 nM.

As for `CC[C@H](C)[C@H](NC(=O)[C@@H](N)Cc1ccccc1)C(=O)N[C@@H](Cc1ccccc1)C(=O)N[C@@H](CC(C)C)C(=O)N[C@@H](CCCCN)C(=O)N[C@@H](CCCCN)C(=O)N[C@@H](CC(N)=O)C(=O)N[C@@H](CCC(=O)O)C(=O)N[C@@H](CC(C)C)C(=O)O` [3102.0673] (H-FIFLKKNEL-OH), the IC50 came to 44 nM at HLA A*3001 and 97 nM at HLA B*0801.

On to `CC[C@H](C)[C@H](NC(=O)[C@@H](N)CC(C)C)C(=O)NCC(=O)N[C@@H](C)C(=O)N[C@@H](CCCNC(=N)N)C(=O)N[C@@H](CCCNC(=N)N)C(=O)N[C@H](C(=O)N[C@@H](CO)C(=O)N[C@@H](Cc1ccccc1)C(=O)O)[C@@H](C)O` [3102.0774] (H-LIGARRTSF-OH), for which the figures for the 50% inhibitory concentration (IC50) at HLA B*1501 and against HLA B*0801 were 40 nM and 1.5 nM, respectively.

As for `CC[C@H](C)[C@H](NC(=O)[C@H](C)N)C(=O)N[C@@H](CC(N)=O)C(=O)N[C@@H](CC(N)=O)C(=O)N[C@@H](CCCNC(=N)N)C(=O)N[C@H](C(=O)N[C@@H](CS)C(=O)N[C@H](C(=O)N[C@@H](CCSC)C(=O)O)C(C)C)[C@@H](C)CC` [3102.0865] (H-AINNRICVM-OH), the values for the IC50 against HLA B*1501 and on HLA B*0801 were 51 nM and 424 nM, respectively.

For the molecule `CC(C)C[C@H](NC(=O)[C@@H](N)CC(C)C)C(=O)N[C@@H](CCCCN)C(=O)N1CCC[C@H]1C(=O)N[C@@H](CCCNC(=N)N)C(=O)N[C@@H](CS)C(=O)N[C@@H](CC(N)=O)C(=O)N1CCC[C@H]1C(=O)N[C@@H](C)C(=O)O` [3102.0901] (H-LLKPRCNPA-OH), the IC50 on HLA B*1501 was found to be 21 nM; against HLA B*0801, 1.2 nM.

Consider `CSCC[C@H](NC(=O)[C@@H](N)CO)C(=O)N[C@@H](Cc1c[nH]cn1)C(=O)N[C@@H](Cc1ccccc1)C(=O)N[C@@H](Cc1ccc(O)cc1)C(=O)NCC(=O)N[C@@H](Cc1c[nH]c2ccccc12)C(=O)N[C@@H](CO)C(=O)N[C@@H](CC(C)C)C(=O)O` [3102.0946] (H-SMHFYGWSL-OH), for which the IC50 on HLA B*1501 amounted to 63 nM; against HLA B*0801 it was 2.9 nM.

`CC[C@H](C)[C@H](NC(=O)[C@H](CS)NC(=O)[C@H](CS)NC(=O)[C@H](Cc1c[nH]cn1)NC(=O)[C@H](CCCNC(=N)N)NC(=O)[C@H](CO)NC(=O)[C@@H](NC(=O)[C@H](CCSC)NC(=O)[C@@H](N)CO)[C@@H](C)CC)C(=O)O` [3102.0973] (H-SMISRHCCI-OH): the IC50 is 81 nM on HLA B*1501 and 1.3 nM against HLA B*0801.

For `CC[C@H](C)[C@H](NC(=O)[C@@H]1CCCN1C(=O)[C@H](CC(C)C)NC(=O)[C@H](Cc1ccccc1)NC(=O)[C@H](CO)NC(=O)[C@H](CCSC)NC(=O)[C@H](CCCCN)NC(=O)[C@H](CO)NC(=O)[C@@H](N)CCC(=O)O)C(=O)O` [3102.0979] (H-ESKMSFLPI-OH), the values for the IC50 against HLA B*1501 and against HLA B*0801 were 358 nM and 1.1 nM, respectively.

`CC[C@H](C)[C@H](NC(=O)[C@H](CCCCN)NC(=O)[C@@H]1CCCN1C(=O)[C@H](CCCNC(=N)N)NC(=O)[C@@H](NC(=O)[C@@H](N)CC(C)C)[C@@H](C)CC)C(=O)N[C@@H](CC(C)C)C(=O)N[C@@H](CO)C(=O)N[C@@H](CCSC)C(=O)O` [3102.0983] (H-LIRPKILSM-OH): the IC50 against HLA B*1501 was determined as 10 nM; on HLA B*0801, 0.55 nM.

For the molecule `CC[C@H](C)[C@H](NC(=O)[C@H](Cc1ccccc1)NC(=O)[C@H](CCSC)NC(=O)[C@H](Cc1ccccc1)NC(=O)[C@H](CCCCN)NC(=O)[C@H](CC(N)=O)NC(=O)[C@H](CCCNC(=N)N)NC(=O)[C@@H](NC(=O)[C@@H](N)CCCNC(=N)N)[C@@H](C)CC)C(=O)O` [3102.0998] (H-RIRNKFMFI-OH), the half-maximal inhibitory concentration (IC50) against HLA A*3001 was found to be 0.069 nM; on HLA B*0801, 1.6 nM.

`CC[C@H](C)[C@H](NC(=O)[C@H](CO)NC(=O)[C@@H](N)CCCNC(=N)N)C(=O)N[C@@H](CCCNC(=N)N)C(=O)N[C@@H](CCCCN)C(=O)N[C@@H](Cc1ccccc1)C(=O)N[C@@H](CC(N)=O)C(=O)N[C@H](C(=O)N[C@@H](CCSC)C(=O)O)[C@@H](C)O` [3102.1003] (H-RSIRKFNTM-OH): the figures for the IC50 against HLA B*1501 and on HLA B*0801 were 4.4 nM and 17 nM, respectively.

In the case of `CC[C@H](C)[C@H](NC(=O)[C@@H](NC(=O)[C@H](CC(C)C)NC(=O)CNC(=O)[C@H](C)NC(=O)[C@H](Cc1ccc(O)cc1)NC(=O)[C@H](CCCCN)NC(=O)[C@H](CC(C)C)NC(=O)[C@@H](N)CC(C)C)[C@@H](C)O)C(=O)O` [3102.1023] (H-LLKYAGLTI-OH), the IC50 against HLA B*1501 is 4.5 nM; against HLA B*0801, 105 nM.

On to `CC(C)[C@H](NC(=O)[C@H](CCCNC(=N)N)NC(=O)[C@@H](N)Cc1ccccc1)C(=O)N[C@H](C(=O)N[C@@H](CCCCN)C(=O)N1CCC[C@H]1C(=O)N[C@@H](CC(N)=O)C(=O)N[C@@H](CO)C(=O)N[C@@H](Cc1ccccc1)C(=O)O)C(C)C` [3102.1127] (H-FRVVKPNSF-OH), for which the IC50 was 108 nM on HLA B*1501 and 91 nM on HLA B*0801.
